For test [1], the system named is Enterococcus faecium ATCC 700221 (VRE; vancomycin-resistant). The test can be described thus: Broth microdilution MIC. In kind it is cell-based. To be noted: for MIC: Enterococcus faecium, read-out: Measured MIC; for Measured MIC: Table 2, polC WT, strain ATCC 700221. On the procedure: (§1) Minimal inhibitory concentrations (MICs) were determined by WuXi Apptec, on behalf of Acurx Pharmaceuticals, Inc., for the Gram-positive pathogens: Enterococcus faecium ATCC 700221 (VRE; vancomycin-resistant), Enterococcus faecalis ATCC 29212, Staphylococcus aureus NRS384 (MRSA; methicillin-resistant), Staphylococcus aureus ATCC 29213 (MSSA; methicillin-sensitive), and Streptococcus pneumoniae ATCC 49619 (PRSP; penicillin-resistant). As a control, Gram-negative Escherichia coli ATCC 25922 was included. All strains were obtained from ATCC with the exception of Staphylococcus aureus NRS384, which was obtained from NARSA (Network on Antimicrobial Resistance in Staphylococcus aureus, now part of BEI resources). Bacteria were cultured according to the manuals provided by the suppliers and stored in 25% glycerol (final concentration) at –80 °C.
(§2) Bacterial strains were streaked out onto MHA plates (Mueller-Hinton II Agar; BD-211438) and incubated at 37 °C for 20 h except for S. pneumoniae and Enterococci, which were streaked on blood agar (Huankai-24070). S. pneumoniae was incubated in 5% CO2. Single colonies were suspended in 5 mL sterile saline, the turbidity was adjusted to 0.20 (Siemens MicroScan turbidity metre; equal to ~1.0 × 10^8 colony forming units (CFU)/mL) and then diluted 200x in MHIIB (Mueller-Hinton II […] (BD-211438)) medium. The MHIIB media was supplemented with 5% Lysed Horse Blood (Shanghai YuanMu Biological Technology Co. Ltd. YM-U161) for S. pneumoniae.
(§3) ACX compounds were dissolved in pure DMSO (Sigma 276855) to a concentration of 20 mg/mL. From this, twofold serial dilutions (from […]) in DMSO were transferred to a 96-well source-plate (Axygen-wipp02280) with pure DMSO as a control. 2 µL from the source plate was then transferred into 96-well culture plates (Costar 3788) and inoculated with 198 µL of the bacterial suspension so that each well contained ~5.0 × 10^5 CFU/mL bacteria, 1% DMSO and serially diluted compounds at 0 µg/mL and 0.0625-64 µg/mL in 100 µl medium. For NRS384, which was tested in a separate experiment, 99 µL of bacterial suspension was added to 1 µL of compound. The plates were incubated in ambient atmosphere at 37 °C for 20 h.
For orientation: Broth dilution looks for growth in wells or tubes with falling amounts of substance.

For test [2], the system named is Enterococcus faecalis ATCC 29212. The experiment in a line: Broth microdilution MIC. In kind it is cell-based. The method, then: as §1, §2, §3
Test [3] deals with Staphylococcus aureus NRS384 (MRSA; methicillin-resistant). The test can be described thus: Broth microdilution MIC. In kind it is cell-based. To be noted: read-out: Measured MIC. The method, then:
as §1, §2, §3

Test [4] deals with Streptococcus pneumoniae ATCC 49619 (PRSP; penicillin-resistant). The test can be described thus: Broth microdilution MIC. The format is cell-based. To be noted: read-out: Measured MIC. The method, then:
as §1, §2, §3

Test [5] relates to Staphylococcus aureus ATCC 29213 (MSSA; methicillin-sensitive). The test can be described thus: Broth microdilution MIC. In kind it is cell-based. To be noted: read-out: Measured MIC. The method, then:
as §1, §2, §3

The subject of test [6] is Escherichia coli ATCC 25922. The experiment in a line: Broth microdilution MIC. In kind it is cell-based. The method, then: as §1, §2, §3
The test system of test [7] is E. faecium strains with polC mutations (A1281T, F1276I, F1276L, F1276S). The experiment in a line: Cross-resistance MIC of reduced susceptible E. faecium strains. To be noted: for MIC: Enterococcus faecium; for raise of MIC by A1281T: E. faecium polC A1281T versus WT (Table 2). The format is cell-based, Enterococcus faecium. On the procedure: Strains with reduced susceptibility to ACX compounds were generated by WuXi Apptec on behalf of Acurx Pharmaceuticals, Inc., using E. faecium ATCC 700221 as parental strain.
Agar MICs for the wild-type strain were determined on Blood agar (Huankai). Compounds and linezolid were dissolved in 100% DMSO and vancomycin in ultrapure water. Strains were inoculated onto agar plates, incubated at 37 °C for 20-24 h after which colonies were suspended in sterile 0.9% saline at different bacterial concentrations. 5 μL of bacterial suspensions was individually spotted on agar plates supplemented with compounds at different concentrations, resulting in final concentrations of 10^–1, 10^–2, 10^–3, 10^–4, 10^–5, 10^–6, and 10^–7 per spot. After incubation for 20-24 h, bacterial growth was assessed by visual inspection.
For frequency of resistance (FOR) studies, colonies from the agar plate were suspended into sterile 0.9% saline to get 10^8-10^9 CFU bacterial cells per mL. […] The suspensions were also serially diluted with 0.9% saline and spotted onto agar to determine the actual inoculum. All agar plates were incubated at 37 °C for 48 h. FOR was defined as colony number on each compound-containing plate per CFU number of actual inoculum. Resistant colonies were subcultured on the corresponding compound plates to confirm that colonies were resistant and stable.
Confirmed resistant colonies were used for cross-resistance studies, as described above.
Paired-end short read sequencing data from selected mutants (generated by BGISEQ) as well as the corresponding wild-type parental strain was analysed against the reference genomes for E. faecium strain ATCC 700221 (https://genomes.atcc.org/genomes/f9d13a716ccb4f78) using Geneious R10.2.6 (Biomatters Ltd). Variants were called using the Find Variants/SNPs function with a minimum coverage of 10 and a minimum frequency of 0.8. […] This identified the following mutations in the polC gene: D1103Y in strain Efa4; F1276L in strains Efa030, Efa038, and Efa039; F1276I in strains Efa1 and Efa037; F1276S in strain Efa3; A1281T in strains Efa036, Efa040 and Efa041. Strains Efa036, Efa039, and Efa040 each had only one polymorphism identified.

Setting [8] is: read-out: Measured MIC, polC A1281T, strain Efa036, selected on 2 mg/L ACX-641.
Where [9] appears, read: read-out: Measured MIC, polC A1281T, strain Efa040, selected on 4 mg/L ACX-671.
The mark [10] stands for this setting: read-out: Measured MIC, polC F1276I, strain Efa037, selected on 4 mg/L ACX-641.
[11] abbreviates: read-out: Measured MIC, polC F1276L, strain Efa030, selected on 16 mg/L ACX-728.
The mark [12] stands for this setting: read-out: Measured MIC, polC F1276S, strain Efa3, selected on 16 mg/L ACX-728.
Setting [13] is: E. faecium VRE ATCC 700221, Table 1, single replicate.
Where [14] appears, read: ATCC29212, E. faecalis ATCC 29212, Table 1, single replicate, read-out: Measured MIC.
[15] abbreviates: S. aureus MRSA NRS 384, Table 1, independent experiment.
Setting [16] is: S. pneumoniae PRSP ATCC 49619, Table 1, single replicate.
Setting [17] is: S. aureus ATCC 29213, Table 1, single replicate.
Where [18] appears, read: ATCC25922, E. coli ATCC 25922, Table 1, single replicate, read-out: Measured MIC.

SMILES strings stand for the structures. Converted amounts (≈) assume the structure as drawn. Where two headings read alike, the source gives them in different places. Bounds are passed on as bounds.

Turning to `CC(=O)NC[C@H]1CN(c2ccc(N3CCOCC3)c(F)c2)C(=O)O1` [LZD, linezolid], the MIC in test [1] was 4 µg/mL (≈ 11.9 µM); in test [2] (ATCC29212, read-out: Measured MIC), 2 µg/mL (≈ 5.93 µM); in test [3] it was 2 µg/mL (≈ 5.93 µM); in test [4] it was 1 µg/mL (≈ 2.96 µM); in test [5], 4 µg/mL (≈ 11.9 µM); in test [6] (ATCC25922, read-out: Measured MIC), greater than 64 µg/mL. Besides, the MIC in test [7] (setting [8]), in test [7] (setting [9]), in test [7] (setting [10]), in test [7] (setting [11]) and in test [7] (setting [12]) was 4 µg/mL each time. The “Measured MIC” value in test [1] turned out to be 4 mg/L.

Take `O=c1[nH]c(NCc2ccc3c(c2)OC(F)(F)O3)nc2c(F)nn(CCO)c12` [ACX-801, 5-(((2,2-difluorobenzo[d][1,3]dioxol-5-yl)methyl)amino)-3-fluoro-1-(2-hydroxyethyl)-1,6-dihydro-7H-pyrazolo[4,3-d]pyrimidin-7-one]: the MIC in test [1] (setting [13]) is 1 µg/mL (≈ 2.61 µM); in test [2] (setting [14]), 2 µg/mL (≈ 5.22 µM); in test [3] (setting [15]) it was 2 µg/mL (≈ 5.22 µM); in test [4] (setting [16]), 4 µg/mL (≈ 10.4 µM); in test [5] (setting [17]) it was 2 µg/mL (≈ 5.22 µM); in test [6] (setting [18]) it was greater than 64 µg/mL. Besides, the MIC in test [7] (setting [8]) was 16 µg/mL; in test [7] (setting [9]) it was 32 µg/mL; in test [7] (setting [10]) it was greater than 64 µg/mL; in test [7] (setting [11]), 64 µg/mL; in test [7] (setting [12]), 32 µg/mL. The “Measured MIC” value in test [1] is on record as 1 mg/L. The “increased potency compared to IBZ” value in test [1] (against Gram-positive bacteria, including MRSA and VRE (Table 1)) was 2- to 4 fold. Also, in test [7], the “raise of MIC by A1281T” value was “up to 32 fold”.

Consider `O=c1[nH]c(NCc2ccc(Cl)c(Cl)c2)nc2ncn(CCN3CCOCC3)c12` [IBZ, N^2-(3,4-dichlorobenzyl)-7-(2-[1-morpholinyl]ethyl)guanine], for which the MIC in test [1] (setting [13]) was 2 µg/mL (≈ 4.72 µM); in test [2] (setting [14]), 8 µg/mL (≈ 18.9 µM); in test [3] (setting [15]) it was 8 µg/mL (≈ 18.9 µM); in test [4] (setting [16]), 2 µg/mL (≈ 4.72 µM); in test [5] (setting [17]), 8 µg/mL (≈ 18.9 µM); in test [6] (setting [18]), greater than 64 µg/mL. In addition, the MIC is 16 µg/mL in test [7] (setting [8]); 8 µg/mL in test [7] (setting [9]); greater than 64 µg/mL in test [7] (setting [10]); greater than 64 µg/mL in test [7] (setting [11]); 16 µg/mL in test [7] (setting [12]). The “Measured MIC” value in test [1] was determined as 2 mg/L. The “raise of MIC by A1281T” value in test [7] was “up to eightfold”.

Values taken from publication PMC12592400, “A unique inhibitor conformation selectively targets the DNA polymerase PolC of Gram-positive priority pathogens” (Nature Communications, 2025).
